Assay results reported in patent US9738634B2, “Heterocyclic amide compound and herbicide” (SYNGENTA PARTICIPATIONS AG, priority 2013, dated 2017).

How the values were obtained:
Type in all cases: in vivo
transplanted rice = assay: Test Example 1: preemergent weed treatment in the submerged state, effect on crop; a: transplanted rice
In short: (§1)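 Emulsion diluted with water to the specified per-hectare dosage is applied onto flood water (4 cm) over alluvial soil on the sowing day, with barnyard grass, bulrush and pondweed seeded and rice (2.5-leaf) transplanted; plants grow at 25–30 °C and are rated at 3 weeks.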

barnyard grass [1] = assay: Test Example 2: weedkilling efficacy, growth period weed treatment in the submerged state; A: barnyard grass
In short: (§2)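 First, alluvial soil in pots is flooded to 4 cm and mixed seed is sown. Next, plants grow in a greenhouse at 25 to 30° C until the 1-2 leaf stage. Then diluted emulsion is applied onto the water surface at the given g/ha rate, and injury is assessed after 3 weeks.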

bulrush [2] = assay: Test Example 2: weedkilling efficacy, growth period weed treatment in the submerged state; B: bulrush
In short: as §2

bulrush [3] = assay: Test Example 1: weedkilling efficacy, preemergent weed treatment in the submerged state; B: bulrush
In short: as §1

oval-leafed pondweed [4] = assay: Test Example 2: weedkilling efficacy, growth period weed treatment in the submerged state; C: oval-leafed pondweed
In short: as §2

oval-leafed pondweed [5] = assay: Test Example 1: weedkilling efficacy, preemergent weed treatment in the submerged state; C: oval-leafed pondweed
In short: as §1

barnyard grass [6] = assay: Test Example 1: weedkilling efficacy, preemergent weed treatment in the submerged state; A: barnyard grass
In short: as §1

SMILES | A (barnyard grass) weedkilling efficacy grade (barnyard grass [1]; treatment dosage 320 g/ha) | B (bulrush) weedkilling efficacy grade (bulrush [2]; treatment dosage 320 g/ha) | C (oval-leafed pondweed) weedkilling efficacy grade (oval-leafed pondweed [4]; treatment dosage 320 g/ha) | a (transplanted rice) effect on crop grade (transplanted rice; treatment dosage 252 g/ha) | A (barnyard grass) weedkilling efficacy grade (barnyard grass [1]; treatment dosage 252 g/ha) | B (bulrush) weedkilling efficacy grade (bulrush [2]; treatment dosage 252 g/ha) | B (bulrush) weedkilling efficacy grade (bulrush [3]; treatment dosage 252 g/ha) | C (oval-leafed pondweed) weedkilling efficacy grade (oval-leafed pondweed [4]; treatment dosage 252 g/ha) | C (oval-leafed pondweed) weedkilling efficacy grade (oval-leafed pondweed [5]; treatment dosage 252 g/ha) | A (barnyard grass) weedkilling efficacy grade (barnyard grass [6]; treatment dosage 252 g/ha) | also measured
Cc1ccc(N2COCN(C(C)(C)C(=O)Nc3cc(Cl)cc(Cl)n3)C2=O)cc1 [A-6-12] | 4 (weed kill ratio 70% or more, less than 90%) | 5 (weed kill ratio 90% or more, (practically complete withering)) | 5 (weed kill ratio 90% or more, (practically complete withering)) |  |  |  |  |  |  |  | a: transplanted rice, effect on crop grade (transplanted rice; treatment dosage 320 g/ha): 2 (weed kill ratio 20% or more, less than 40%); B: bulrush, weed kill grade (bulrush [3]; treatment dosage 320 g/ha): 5 (weed kill ratio 90% or more, (practically complete withering)); C: oval-leafed pondweed, weed kill grade (oval-leafed pondweed [5]; treatment dosage 320 g/ha): 5 (weed kill ratio 90% or more, (practically complete withering)); A: barnyard grass, weed kill grade (barnyard grass [6]; treatment dosage 320 g/ha): 5 (weed kill ratio 90% or more, (practically complete withering))
O=C1N(c2ccccc2)COCN1C1(C(=O)Nc2cc(Cl)cc(Cl)n2)CC1 [A-7-04] |  |  |  |  |  |  |  |  |  |  | a: transplanted rice, effect on crop grade (transplanted rice; treatment dosage 1000 g/ha): 0 (weed kill ratio 5% or less (practically no effect)); A (barnyard grass) weedkilling efficacy grade (barnyard grass [1]; treatment dosage 1000 g/ha): 0 (weed kill ratio 5% or less (practically no effect)); B (bulrush) weedkilling efficacy grade (bulrush [2]; treatment dosage 1000 g/ha): 1 (weed kill ratio 5% or more, less than 20%); B: bulrush, weed kill grade (bulrush [3]; treatment dosage 1000 g/ha): 5 (weed kill ratio 90% or more, (practically complete withering)); C (oval-leafed pondweed) weedkilling efficacy grade (oval-leafed pondweed [4]; treatment dosage 1000 g/ha): 0 (weed kill ratio 5% or less (practically no effect)); C: oval-leafed pondweed, weed kill grade (oval-leafed pondweed [5]; treatment dosage 1000 g/ha): 0 (weed kill ratio 5% or less (practically no effect)); A: barnyard grass, weed kill grade (barnyard grass [6]; treatment dosage 1000 g/ha): 0 (weed kill ratio 5% or less (practically no effect))
CC1=C(c2ccccc2)C(=O)N(C(C)(C)C(=O)Nc2nnc(-c3ccccc3)s2)CO1 [B-1-11] |  |  |  | 0 (weed kill ratio 5% or less (practically no effect)) | 1 (weed kill ratio 5% or more, less than 20%) | 4 (weed kill ratio 70% or more, less than 90%) | 5 (weed kill ratio 90% or more, (practically complete withering)) | 3 (weed kill ratio 40% or more, less than 70%) | 5 (weed kill ratio 90% or more, (practically complete withering)) | 4 (weed kill ratio 70% or more, less than 90%) | 
CC1=C(c2cccnc2F)C(=O)N(C(C)(C)C(=O)Nc2cccc(Br)n2)CO1 [B-2-10] | 5 (weed kill ratio 90% or more, (practically complete withering)) | 5 (weed kill ratio 90% or more, (practically complete withering)) | 5 (weed kill ratio 90% or more, (practically complete withering)) |  |  |  |  |  |  |  | a (transplanted rice) effect on crop grade (transplanted rice; treatment dosage 320 g/ha): 1 (weed kill ratio 5% or more, less than 20%); B (bulrush) weedkilling efficacy grade (bulrush [3]; treatment dosage 320 g/ha): 5 (weed kill ratio 90% or more, (practically complete withering)); C (oval-leafed pondweed) weedkilling efficacy grade (oval-leafed pondweed [5]; treatment dosage 320 g/ha): 5 (weed kill ratio 90% or more, (practically complete withering)); A (barnyard grass) weedkilling efficacy grade (barnyard grass [6]; treatment dosage 320 g/ha): 5 (weed kill ratio 90% or more, (practically complete withering))
CC1=C(c2cccnc2F)C(=O)N(C(C)(C)C(=O)Nc2cc(C(F)(F)F)ccn2)CO1 [B-2-17] |  |  |  | 3 (weed kill ratio 40% or more, less than 70%) | 4 (weed kill ratio 70% or more, less than 90%) | 5 (weed kill ratio 90% or more, (practically complete withering)) | 5 (weed kill ratio 90% or more, (practically complete withering)) | 3 (weed kill ratio 40% or more, less than 70%) | 5 (weed kill ratio 90% or more, (practically complete withering)) | 5 (weed kill ratio 90% or more, (practically complete withering)) | 
